# Laboratory results taken from ChEMBL document CHEMBL1146393, “Coriaheptocins A and B, the First Heptahydroxylated Acetogenins, Isolated from the Roots of Annona coriacea 1” (1997).
# Tested on: KB
# Assay: Cytotoxicity against human KB cells
# Format: functional
# Conditions: read-out: ED50 (the source's name)
row,Compound,EC50
1,CCCCCCCCCCCC[C@@H](O)[C@H](O)CC[C@H](O)C[C@@H](O)C[C@H](O)[C@@H]1CC[C@H]([C@H](O)CC[C@@H](O)CC2=C[C@H](C)OC2=O)O1 [CORIAHEPTOCIN B],0.18 mg/L
2,CC(=O)O[C@H]1C(=O)[C@@]2(C)[C@H]([C@H](OC(=O)c3ccccc3)[C@]3(O)C[C@H](OC(=O)[C@H](O)[C@@H](NC(=O)c4ccccc4)c4ccccc4)C(C)=C1C3(C)C)[C@]1(OC(C)=O)CO[C@@H]1C[C@@H]2O [PACLITAXEL],0.02 mg/L
3,CCCCCCCCCCCC[C@@H](O)[C@H](O)CC[C@H](O)C[C@@H](O)C[C@H](O)[C@@H]1CC[C@@H]([C@H](O)CC[C@@H](O)CC2=C[C@H](C)OC2=O)O1 [CORIAHEPTOCIN A],0.63 mg/L
